According to patent publication US11628198B2, “Methods for prevention and treatment of acute renal injury” (Cornell University, priority 2008, dated 2023):
Marks after values point to notes of the source that are not given here. Non-standard residues stand in square brackets, D forms with d. No end group written: not given here.

Legend:
CIN in patients = conditions: 443 patients randomly assigned; cited from earlier work
[1] = system: ARI caused by ischemia-reperfusion (I/R); experiment: I/R model of ARI: BUN and serum creatinine; format: in vivo, rat; conditions: 45 min ischemia and 24 h reperfusion; 3 mg/kg 30 min before ischemia and before reperfusion
Method: (§1) Sprague Dawley rats (250˜300 g) were assigned to four groups: (1) sham surgery group without I/R; (2) I/R+saline vehicle treatment; (3) I/R+SS-20 treatment; (4) I/R+SS-31 treatment. Each experimental group consisted of 8 rats. SS-20 and SS-31 (3 mg/kg, dissolved in saline) were administered to rats 30 min before ischemia and immediately before onset of reperfusion. The control rats were given saline alone on the same schedule.
(§2) Rats were anesthetized with a mixture of ketamine (90 mg/kg, i.p.) and xylazine (4 mg/kg, i.p.). The left renal vascular pedicle was occluded temporarily using a micro-clamp for 30 or 45 min. At the end of the ischemic period, reperfusion was established by removing of the clamp. At that time, the contralateral right kidney was removed. After 24 h reperfusion, animals were sacrificed and blood samples were obtained by cardiac puncture. Renal function was determined by blood urea nitrogen (BUN) and serum creatinine (BioAssay Systems DIUR-500 and DICT-500).
BUN and serum creatinine were assayed using kits from BioAssay Systems (DIUR-500 and DICT-500). […] The # indicates p<0.05 from the IR=saline group.

[2] = system: ATP content in renal tissue; experiment: I/R model: ATP content assay of kidney tissue; format: in vivo, rat
Method: as §1, §2
ATP Content Assay: The kidney tissue was immediately put into 10 ml 5% trichloroacetic acid with 10 mM DTT, 2 mM EDTA and cut into small pieces. The tissue was homogenized on ice, incubated for another 10 min, centrifuged for 10 min at 2000×g, and neutralized with 10N KOH to pH 7.6. After centrifugation for 10 min at 2000×g, aliquots of the resulting supernatant were stored at −80° C. ATP was measured by bioluminescence (ATP bioluminescent kit, Sigma, MO, USA).

[3] = system: ARI caused by ischemia-reperfusion (I/R); experiment: I/R model: renal morphologic examination (H&E, PAS); format: in vivo, rat; conditions: 45 min ischemia and 24 h reperfusion
Method: as §1, §2
Renal Morphologic Examination: Kidneys were fixed in 10% neutral-buffered formalin and embedded in paraffin wax. Three micron sections were stained with hematoxylin-eosin (H&E) and periodic acid-Schiff (PAS) and analyzed by light microscopy. Lesions were scored using the following criteria: [1] mitosis and necrosis of individual cells; [2] necrosis of all cells in adjacent proximal convoluted tubules with survival of surrounding tubules; [3] necrosis confined to the distal third of the proximal convoluted tubule with a band of necrosis extending across the inner cortex; and [4] necrosis affecting all three segments of the proximal convoluted tubule.

renal mitochondria = experiment: I/R model: respiration of isolated renal mitochondria; format: in vivo, rat; conditions: after 45 min ischemia, pretreatment
Method: Results. The effects of the aromatic-cationic peptides of the invention on a model of ARI caused by ischemia-reperfusion were investigated. Renal mitochondria were isolated in accordance with the procedures described above and oxygen consumption was measured.
State 3 respiration was initiated with the addition of ADP.

[4] = system: ARI caused by ischemia-reperfusion (I/R); experiment: I/R model: TUNEL assay for apoptosis; format: in vivo, rat; conditions: 30 min ischemia and 24 h reperfusion; 3 mg/kg
Method: as §1, §2
TUNEL Assay for Apoptosis: Renal tissue sections were deparaffinized and rehydrated by xylenes, graded alcohol series and deionized H2O, and then incubated in 20 μg/ml proteinase K for 20 min at RT. In situ cell death detection POD kit (Roche, IN, USA) was used according to the manufacturer's instructions. […]

Compound	incidence of CIN (CIN in patients) [%]	BUN [1]	serum creatinine [1]	ATP content in renal tissue ([2]; 1 h reperfusion following 45 min ischemia, vs vehicle)	ATP content in renal tissue ([2]; end of 15 min ischemia)	histopathological score [3]	tubular cell injury (H&E, PAS) [3]	renal mitochondrial oxygen consumption (state 3 respiration) (renal mitochondria)	TUNEL-positive cells in the medulla (tubular cell apoptosis) [4]
C[C@H](O)C(=O)Nc1c(I)c(C(=O)NC(CO)CO)c(I)c(C(=O)NC(CO)CO)c1I [Iopamidol (Isovue 370), Iopamidol]	8.2								
F[dR]FK-NH2 [SS-20]		130.7 ± 5.5# mg/dl	1.06 ± 0.11# mg/dl	significantly higher	not altered	significantly improved histopathological score	protected brush border and prevented necrosis in the proximal tubules	significantly improved oxygen consumption	significantly prevented TUNEL-positive cells
